Test system: L-cells
Type: cell-based, murine
Settings: spontaneous lysis and cell recovery in presence of peptide alone (data not shown)
From the text: Identification of the immunodominant epitope recognized by the line Pol a: To identify the epitope(s) contained in this area, we used 21 overlapping 15-amino acid peptides designated HP134 to HP154 covering residues 168 to 316. […] HP138 ([…]) corresponds to residues 205-219 of the HTLV/IIIB strain sequence (32). […] The line Pol a was Class I MHC-restricted because it killed HP 138-pulsed, Class II MHC molecule-negative H-2^k L-cell fibroblasts, but not 3T3 fibroblasts (H-2^d) or EL4 thymoma cells (H-2^b).

CC[C@H](C)[C@H](NC(=O)[C@H](CCCCN)NC(=O)[C@H](CO)NC(=O)[C@@H](NC(=O)[C@H](CCCCN)NC(=O)CNC(=O)[C@H](CCC(=O)O)NC(=O)[C@H](CCCCN)NC(=O)[C@H](CCC(=O)O)NC(=O)[C@H](CCSC)NC(=O)[C@H](CCC(=O)O)NC(=O)[C@@H](NC(=O)[C@@H](N)CS)[C@@H](C)O)[C@@H](C)CC)C(=O)NCC(=O)N1CCC[C@H]1C(=O)O [HP138]
toxicity of the peptide by itself: not toxic by itself

From patent US5336758A, “Peptides stimulating cytotoxic T cells immune to HIV RT” (The United States of America as represented by the …, priority 1990, dated 1994)
